Source: PubChem BioAssay AID254 (DTP/NCI, 2004)
“And” between values parts separate entries of the source, which are not always exact repeats. Identical values can stand only once. Toxic doses and inconclusive results are not listed.

Tested on: L1210 leukemia iv in BDF1 mice, survival T/C
Assay: NCI In Vivo Anticancer Drug Screen. Data for tumor model L1210 Leukemia (intravenous) in B6D2F1 (BDF1) mice
Conditions: higher = longer survival
Description: The antitumor activity of compounds was measured in mice bearing transplantable tumors. Survival or tumor size were measured and the results are expressed as the measurement made in the treated group (T) divided by the measurement made in the vehicle treated control group (C). The tumor model used in this assay is L1210 Leukemia (intravenous) in B6D2F1 (BDF1) mice

Q: For NC(=O)c1csc(C2OC(CO)C(O)C2O)n1 (configuration not stated), which T/C (endpoint: median survival time, dose: 330.0 mg/kg/injection, schedule: Q01DX009 (ip), vehicle: water) is on record?
A: 241 % of control

Q: What about the T/C (endpoint: median survival time, dose: 500.0 mg/kg/injection, schedule: Q01DX009 (ip), vehicle: water) of the same molecule?
A: 265 % of control

Q: And the T/C (endpoint: median survival time, dose: 750.0 mg/kg/injection, schedule: Q01DX009 (ip), vehicle: water)?
A: 268 % of control

Q: With O=NN(CCF)C(=O)NC1CCS(=O)(=O)CC1 as the molecule, how does the T/C (endpoint: mean survival time, dose: 4.8 mg/kg/injection, schedule: Q01DX001 (oral), vehicle: other) read?
A: 185 % of control and 225 % of control

Q: And the T/C (endpoint: mean survival time, dose: 6.0 mg/kg/injection, schedule: Q01DX001 (ip), vehicle: other)?
A: 190 % of control and 213 % of control

Q: And the T/C (endpoint: mean survival time, dose: 11.0 mg/kg/injection, schedule: Q01DX001 (oral), vehicle: other)?
A: 429 % of control and 504 % of control

Q: And the T/C (endpoint: mean survival time, dose: 12.0 mg/kg/injection, schedule: Q01DX001 (ip), vehicle: other)?
A: 365 % of control and 518 % of control

Q: And the T/C (endpoint: mean survival time, dose: 21.0 mg/kg/injection, schedule: Q01DX001 (oral), vehicle: other)?
A: 562 % of control and 817 % of control

Q: And the T/C (endpoint: mean survival time, dose: 24.0 mg/kg/injection, schedule: Q01DX001 (ip), vehicle: other)?
A: 620 % of control and 688 % of control

Q: What about the T/C (endpoint: mean survival time, dose: 40.0 mg/kg/injection, schedule: Q01DX001 (oral), vehicle: other) of the same molecule?
A: 436 % of control and 569 % of control

Q: And the T/C (endpoint: mean survival time, dose: 48.0 mg/kg/injection, schedule: Q01DX001 (ip), vehicle: other)?
A: 517 % of control and 590 % of control

Q: Which results are given for N[C@@H](Cc1ccc(N(CCCl)CCCl)cc1)C(=O)O?
A: T/C (endpoint: mean survival time, dose: 0.1 mg/kg/injection, schedule: Q01DX015 (ip), vehicle: carboxymethylcellulose (CMC)): 94 % of control and 103 % of control; T/C (endpoint: mean survival time, dose: 0.2 mg/kg/injection, schedule: Q01DX015 (ip), vehicle: carboxymethylcellulose (CMC)): 107 % of control and 96 % of control; T/C (endpoint: mean survival time, dose: 0.4 mg/kg/injection, schedule: Q01DX015 (ip), vehicle: carboxymethylcellulose (CMC)): 107 % of control and 98 % of control; T/C (endpoint: mean survival time, dose: 0.8 mg/kg/injection, schedule: Q01DX015 (ip), vehicle: carboxymethylcellulose (CMC)): 100 % of control and 103 % of control; T/C (endpoint: mean survival time, dose: 1.13 mg/kg/injection, schedule: Q01DX001 (ip), vehicle: carboxymethylcellulose (CMC)): 105 % of control; T/C (endpoint: mean survival time, dose: 1.6 mg/kg/injection, schedule: Q01DX015 (ip), vehicle: carboxymethylcellulose (CMC)): 107 % of control and 101 % of control; T/C (endpoint: mean survival time, dose: 1.7 mg/kg/injection, schedule: Q01DX001 (ip), vehicle: carboxymethylcellulose (CMC)): 95 % of control and 102 % of control; T/C (endpoint: mean survival time, dose: 2.25 mg/kg/injection, schedule: Q01DX001 (ip), vehicle: carboxymethylcellulose (CMC)): 109 % of control and 96 % of control; T/C (endpoint: mean survival time, dose: 3.0 mg/kg/injection, schedule: Q01DX001 (ip), vehicle: carboxymethylcellulose (CMC)): 106 % of control and 97 % of control; T/C (endpoint: mean survival time, dose: 4.5 mg/kg/injection, schedule: Q01DX001 (ip), vehicle: carboxymethylcellulose (CMC)): 105 % of control and 113 % of control; T/C (endpoint: mean survival time, dose: 4.75 mg/kg/injection, schedule: Q01DX001 (ip), vehicle: Klucel (hydroxypropylcellulose) (HPC)): 104 % of control and 105 % of control; T/C (endpoint: mean survival time, dose: 7.0 mg/kg/injection, schedule: Q01DX001 (ip), vehicle: carboxymethylcellulose (CMC)): 105 % of control; T/C (endpoint: mean survival time, dose: 9.0 mg/kg/injection, schedule: Q01DX001 (ip), vehicle: carboxymethylcellulose (CMC)): 155 % of control; T/C (endpoint: mean survival time, dose: 14.0 mg/kg/injection, schedule: Q01DX001 (ip), vehicle: carboxymethylcellulose (CMC)): 181 % of control; T/C (endpoint: mean survival time, dose: 14.25 mg/kg/injection, schedule: Q01DX001 (ip), vehicle: Klucel (hydroxypropylcellulose) (HPC)): 177 % of control; T/C (endpoint: mean survival time, dose: 15.0 mg/kg/injection, schedule: Q01DX001 (ip), vehicle: saline): 163 % of control and 195 % of control; T/C (endpoint: mean survival time, dose: 18.0 mg/kg/injection, schedule: Q01DX001 (ip), vehicle: carboxymethylcellulose (CMC)): 190 % of control and 255 % of control; T/C (endpoint: mean survival time, dose: 19.0 mg/kg/injection, schedule: Q01DX001 (ip), vehicle: Klucel (hydroxypropylcellulose) (HPC)): 214 % of control and 215 % of control; T/C (endpoint: mean survival time, dose: 23.75 mg/kg/injection, schedule: Q01DX001 (ip), vehicle: Klucel (hydroxypropylcellulose) (HPC)): 177 % of control; T/C (endpoint: mean survival time, dose: 29.0 mg/kg/injection, schedule: Q01DX001 (ip), vehicle: carboxymethylcellulose (CMC)): 206 % of control

Q: Which results are given for COc1cc([C@@H]2c3cc4c(cc3[C@@H](OC3OC5COC(C)OC5C(O)C3O)[C@H]3COC(=O)[C@H]23)OCO4)cc(OC)c1O (some centres not stated)?
A: T/C (endpoint: mean survival time, dose: 12.0 mg/kg/injection, schedule: Q04DX003 (ip), vehicle: saline): 117 % of control; T/C (endpoint: mean survival time, dose: 40.0 mg/kg/injection, schedule: Q04DX003 (ip), vehicle: saline): 297 % of control; T/C (endpoint: mean survival time, dose: 60.0 mg/kg/injection, schedule: Q04DX003 (ip), vehicle: saline): 447 % of control

Q: O=c1[nH]cc(F)c(=O)[nH]1 was tested. Which T/C (endpoint: mean survival time, dose: 10.0 mg/kg/injection, schedule: Q01DX005 (ip), vehicle: saline) did it give?
A: 109 % of control

Q: And the T/C (endpoint: mean survival time, dose: 20.0 mg/kg/injection, schedule: Q01DX005 (ip), vehicle: saline)?
A: 120 % of control

Q: What about the T/C (endpoint: mean survival time, dose: 40.0 mg/kg/injection, schedule: Q01DX005 (ip), vehicle: saline) of the same molecule?
A: 152 % of control

Q: And the T/C (endpoint: mean survival time, dose: 50.0 mg/kg/injection, schedule: Q01DX005 (ip), vehicle: saline)?
A: 183 % of control

Q: And the T/C (endpoint: mean survival time, dose: 60.0 mg/kg/injection, schedule: Q01DX005 (ip), vehicle: saline)?
A: 182 % of control and 186 % of control

Q: What about the T/C (endpoint: mean survival time, dose: 120.0 mg/kg/injection, schedule: Q01DX001 (ip), vehicle: water) of the same molecule?
A: 150 % of control

Q: What about the T/C (endpoint: mean survival time, dose: 150.0 mg/kg/injection, schedule: Q01DX001 (ip), vehicle: water) of the same molecule?
A: 154 % of control

Q: What about the T/C (endpoint: mean survival time, dose: 180.0 mg/kg/injection, schedule: Q01DX001 (ip), vehicle: water) of the same molecule?
A: 180 % of control
